Experimental findings from US6110949A, “N-(substituted glycyl)-4-cyanothiazolidines, pharmaceutical compositions containing them and their use in inhibiting dipeptidyl peptidase-IV” (Novartis AG, priority 1999, dated 2000) are described below.

The structures appear in SMILES notation. Counter-ions that a name gives are not always drawn.

What all share (assay type): biochemical
Test [1] addresses T1, human plasma DPP-IV (Homo sapiens, UniProt P27487).
T1 construct: from tissue; host or cells: human plasma
In words: Inhibition of DPP-IV activity in human plasma. Particulars: substrate H-Glycine-Proline-AMC, pH 7.8, room temperature, 20 min. Here is the method: (§1) 192-197 (1992). Briefly, five μl of plasma are added to 96-well flat-bottom mictotiter plates (Falcon), followed by the addition of 5 μl of 80 mM MgCI2 in incubation buffer (25 mM HEPES, 140 mM NaCl, 1% RIA-grade BSA, pH 7.8). After a 5 min. incubation at room temperature, the reaction is initiated by the addition of 10 μl of incubation buffer containing 0.1 mM substrate (H-Glycine-Proline-AMC; AMC is 7-amino-4-methylcoumarin). The plates are covered with aluminum foil (or kept in the dark) and incubated at room temperature for 20 min. After the 20 min. reaction, fluorescence is measured using a CytoFluor 2350 fluorimeter (Excitation 380 nm Emission 460 nm; sensitivity setting 4). Test compounds are typically added as 2 μl additions and the assay buffer volume is reduced to 13 μl. A fluorescence-concentration curve of free AMC is generated using 0-50 μM solutions of AMC in assay buffer. The curve generated is linear and is used for interpolation of substrate consumption (catalytic activity in nmoles substrate cleaved/min). As with the previous assay, the potency of the test compounds as DPP-IV inhibitors, expressed as IC50, is calculated from 8-point, dose-response curves using a 4 parameter logistic function.

The target of test [2] is T2, rat plasma DPP-IV (Rattus norvegicus, UniProt P14740).
T2 construct: from tissue; host or cells: rat plasma
T2 sequence (P14740 37-767 limits assumed): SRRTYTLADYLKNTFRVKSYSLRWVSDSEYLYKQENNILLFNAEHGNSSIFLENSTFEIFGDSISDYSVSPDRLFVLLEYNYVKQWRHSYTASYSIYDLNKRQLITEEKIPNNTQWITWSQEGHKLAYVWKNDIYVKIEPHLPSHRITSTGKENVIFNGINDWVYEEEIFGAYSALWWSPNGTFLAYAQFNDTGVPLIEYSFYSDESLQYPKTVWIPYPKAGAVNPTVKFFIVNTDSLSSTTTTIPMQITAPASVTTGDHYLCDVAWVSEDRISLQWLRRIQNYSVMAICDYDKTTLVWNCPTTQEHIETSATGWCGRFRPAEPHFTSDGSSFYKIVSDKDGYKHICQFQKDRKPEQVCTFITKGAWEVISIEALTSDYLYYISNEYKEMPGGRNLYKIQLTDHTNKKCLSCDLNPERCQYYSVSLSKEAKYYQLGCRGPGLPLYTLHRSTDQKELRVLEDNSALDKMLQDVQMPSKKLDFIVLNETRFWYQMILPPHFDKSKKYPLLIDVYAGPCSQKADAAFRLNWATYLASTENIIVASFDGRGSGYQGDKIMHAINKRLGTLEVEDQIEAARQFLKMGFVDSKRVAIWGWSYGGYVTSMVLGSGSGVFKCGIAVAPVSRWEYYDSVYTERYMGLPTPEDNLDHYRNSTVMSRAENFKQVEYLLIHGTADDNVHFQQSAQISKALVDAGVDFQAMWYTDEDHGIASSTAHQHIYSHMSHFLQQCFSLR
The test is described as follows: Inhibition of DPP-IV activity in rat plasma. The conditions noted are these: substrate H-Glycine-Proline-AMC, pH 7.8, room temperature, 20 min. On the procedure: as §1

For test [3], the target named is T3, DPP-IV (Caco-2 cell extract) (Homo sapiens, UniProt P27487).
T3 construct: adding 20 μg solubilized Caco-2 protein; endogenous in cells; host or cells: Caco-2 (ATCC HTB 37), differentiated to induce DPP-IV expression; nonidet-P40 extract
T3 sequence (P27487 whole entry): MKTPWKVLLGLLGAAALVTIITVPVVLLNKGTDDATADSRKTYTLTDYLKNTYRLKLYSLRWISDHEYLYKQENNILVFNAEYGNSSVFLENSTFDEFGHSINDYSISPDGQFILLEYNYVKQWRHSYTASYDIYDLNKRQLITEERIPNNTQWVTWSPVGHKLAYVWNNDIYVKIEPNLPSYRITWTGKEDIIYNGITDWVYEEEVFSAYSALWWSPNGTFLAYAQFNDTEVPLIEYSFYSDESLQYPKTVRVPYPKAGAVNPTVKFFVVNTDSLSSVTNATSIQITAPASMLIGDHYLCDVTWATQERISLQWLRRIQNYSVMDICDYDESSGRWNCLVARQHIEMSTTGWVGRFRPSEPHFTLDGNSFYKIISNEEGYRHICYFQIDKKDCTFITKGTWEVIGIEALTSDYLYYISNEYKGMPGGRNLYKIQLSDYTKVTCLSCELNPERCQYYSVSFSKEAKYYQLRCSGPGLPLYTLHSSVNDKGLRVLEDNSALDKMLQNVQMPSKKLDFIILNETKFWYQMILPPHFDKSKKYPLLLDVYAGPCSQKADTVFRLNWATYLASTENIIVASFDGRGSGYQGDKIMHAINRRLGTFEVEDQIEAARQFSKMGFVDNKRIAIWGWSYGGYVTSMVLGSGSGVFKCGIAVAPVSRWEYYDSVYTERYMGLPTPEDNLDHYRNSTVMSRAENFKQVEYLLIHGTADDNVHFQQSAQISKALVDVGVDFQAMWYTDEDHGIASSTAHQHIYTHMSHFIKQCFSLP
In words: Caco-2 DPP-IV Assay (inhibition of DPP-IV activity from human colonic carcinoma cell extracts). Particulars: substrate H-Alanine-Proline-pNA, pH 7.4, room temperature, 10 minutes. The source says: As indicated above, all of the compounds of formula I, and their corresponding pharmaceutically acceptable acid addition salts, are useful in inhibiting DPP-IV. […] The human colonic carcinoma cell line Caco-2 was obtained from the American Type Culture Collection (ATCC HTB 37). Differentiation of the cells to induce DPP-IV expression was accomplished as described by Reisher, et al. in an article entitled "Increased expression of . . . intestinal cell line Caco-2" in Proc. Natl. Acad. Sci., Vol. 90, pgs. 5757-5761 (1993). Cell extract is prepared from cells solubilized in 10 mM Tris-HCl, 0.15 M NaCl, 0.04 t.i.u. aprotinin, 0.5% nonidet-P40, pH 8.0, which is centrifuged at 35,000 g for 30 min. at 4° C. to remove cell debris. The assay is conducted by adding 20 μg solubilized Caco-2 protein, diluted to a final volume of 125 μl in assay buffer (25 mM Tris-HCl pH 7.4, 140 mM NaCl, 10 mM KCl, 1% bovine serum albumin) to microtiter plate wells. The reaction is initiated by adding 25 μl of 1 mM substrate (H-Alanine-Proline-pNA; pNA is p-nitroaniline). The reaction is run at room temperature for 10 minutes after which time a 19 μl volume of 25% glacial acetic acid is added to stop the reaction. Test compounds are typically added as 30 μl additions and the assay buffer volume is reduced to 95 μl. A standard curve of free p-nitroaniline is generated using 0-500 μM solutions of free pNA in assay buffer. The curve generated is linear and is used for interpolation of substrate consumption (catalytic activity in nmoles substrate cleaved /min). The endpoint is determined by measuring absorbance at 405 nm in a Molecular Devices UV Max microtiter plate reader. The potency of the test compounds as DPP-IV inhibitors, expressed as IC50, is calculated from 8-point, dose-response curves using a 4-parameter logistic function.

T1 sequence (P27487 39-766 limits assumed): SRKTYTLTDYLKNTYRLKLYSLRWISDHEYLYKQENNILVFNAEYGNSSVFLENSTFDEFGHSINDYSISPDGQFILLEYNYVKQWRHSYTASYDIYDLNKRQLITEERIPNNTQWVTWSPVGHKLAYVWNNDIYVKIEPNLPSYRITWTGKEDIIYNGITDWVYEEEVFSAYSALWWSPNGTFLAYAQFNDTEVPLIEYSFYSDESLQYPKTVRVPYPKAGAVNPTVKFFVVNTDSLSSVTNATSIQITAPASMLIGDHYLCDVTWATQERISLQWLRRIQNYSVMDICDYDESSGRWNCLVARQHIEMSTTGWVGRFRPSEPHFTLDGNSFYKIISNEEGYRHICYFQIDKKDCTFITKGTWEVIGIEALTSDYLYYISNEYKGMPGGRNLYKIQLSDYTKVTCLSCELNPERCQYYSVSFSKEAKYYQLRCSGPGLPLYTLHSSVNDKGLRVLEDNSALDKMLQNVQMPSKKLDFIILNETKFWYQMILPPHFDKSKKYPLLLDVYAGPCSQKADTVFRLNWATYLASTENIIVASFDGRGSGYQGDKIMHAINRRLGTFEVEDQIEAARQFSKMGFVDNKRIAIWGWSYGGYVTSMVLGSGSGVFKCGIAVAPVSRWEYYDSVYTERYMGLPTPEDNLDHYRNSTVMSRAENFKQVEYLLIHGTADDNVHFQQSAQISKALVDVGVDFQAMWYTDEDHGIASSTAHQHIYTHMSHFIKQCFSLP

As for `N#C[C@@H]1CSCN1C(=O)CNC1CCCCC1` [Ex. 1, 3-[(cyclohexyl)amino]acetyl-4-cyano-(R)-thiazolidine monohydrochloride], the 50% inhibitory concentration (IC50) in test [1] was 10 nM; in test [2], 10 nM; in test [3], 7 nM.
As to `CC(C)OCCCNCC(=O)N1CSC[C@H]1C#N` [Ex. 2, 3-[(3-isopropoxypropyl)amino]acetyl-4-cyano-(R)-thiazolidine monohydrochloride], the half-maximal inhibitory concentration (IC50) turned out to be 5 nM in test [1], 1 nM in test [2] and 7 nM in test [3].
With `CC(C)NCC(=O)N1CSC[C@H]1C#N` [Ex. 3, 3-[(isopropyl)amino]acetyl-4-cyano-(R)-thiazolidine monohydrochloride], the IC50 in test [1] came to 3 nM; in test [2], 3 nM; in test [3] it was 6 nM.

Usually IC50 stands for the point on the concentration scale where inhibition reaches its midpoint. A higher IC50 goes with weaker potency.
